Laboratory results taken from ChEMBL document CHEMBL5113390, “Design, synthesis and antitumor evaluation of novel 1H-indole-2-carboxylic acid derivatives targeting 14-3-3η protein” (Eur J Med Chem, 2022).
Active and inactive are the calls of the source. No cut-off for these calls is given here.

Experiments:
SMMC-7721 = assay: Antiproliferative activity against human SMMC-7721 cells assessed as reduction in cell viability incubated for 72 hrs by MTT assay; format: functional, cell-based; conditions: SMMC-7721, 72 h
SNU-387 = assay: Antiproliferative activity against human SNU-387 cells assessed as reduction in cell viability incubated for 72 hrs by MTT assay; format: functional, cell-based; conditions: SNU-387, 72 h
Bel7402/5-FU = assay: Antiproliferative activity against human BEL-7402/5-FU cells overexpressing 14-3-3 eta assessed as reduction in cell viability incubated for 72 hrs by MTT assay; format: functional, cell-based
14-3-3 protein eta = molecular target: T1, 14-3-3 protein eta (Homo sapiens, UniProt Q04917); assay: Binding affinity to 14-3-3 eta (unknown origin) assessed as dissociation constant by biolayer interferometry assay
T1 sequence (Q04917 whole entry): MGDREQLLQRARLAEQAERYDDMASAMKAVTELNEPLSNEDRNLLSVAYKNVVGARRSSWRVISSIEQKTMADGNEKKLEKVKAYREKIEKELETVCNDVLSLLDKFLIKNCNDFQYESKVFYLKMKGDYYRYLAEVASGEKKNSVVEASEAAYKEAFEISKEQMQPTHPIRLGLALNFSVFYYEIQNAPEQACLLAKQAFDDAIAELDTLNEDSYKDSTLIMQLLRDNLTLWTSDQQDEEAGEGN

[1] = molecular target: T2, 14-3-3 protein eta (Homo sapiens) (UniProt Q04917); assay: Inhibition of 14-3-3 eta in human Hep3B cells assessed as reduction in ERK phosphorylation measured after 24 hrs by western blot analysis; format: cell-based; conditions: dose 0.5-5 µM, DDE = dose-dependent effect
T2 sequence (whole entry): T1 sequence (Q04917 whole entry)

Hep 3B2 [2] = assay: Antiproliferative activity against human Hep3B cells assessed as reduction in cell viability measured after 7 days by crystal violet staining based assay; format: functional; conditions: dose 1-10 µM, time 7.0 day, DDE = dose-dependent effect
Hep 3B2 [3] = assay: Inhibition of cell invasion in human Hep3B cells incubated for 72 hrs by crystal violet staining based transwell assay; format: functional; conditions: dose 1-10 µM, DDE = dose-dependent effect
Hep 3B2 [4] = assay: Induction of apoptosis in human Hep3B cells assessed as viable cells at 1 uM measured after 48 hrs by Annexin V/FITC-PI staining based flow cytometry assay (reference value: 90.09%); format: functional; conditions: read-out: Activity
Hep 3B2 [5] = assay: Induction of apoptosis in human Hep3B cells assessed as early apoptotic cells at 1 uM measured after 48 hrs by Annexin V/FITC-PI staining based flow cytometry assay (reference value: 6.65%); format: functional
Hep 3B2 [6] = assay: Induction of apoptosis in human Hep3B cells assessed as late apoptotic cells at 1 uM measured after 48 hrs by Annexin V/FITC-PI staining based flow cytometry assay (reference value: 3.14%); format: functional
Hep 3B2 [7] = assay: Induction of apoptosis in human Hep3B cells assessed as viable cells at 2.5 uM measured after 48 hrs by Annexin V/FITC-PI staining based flow cytometry assay (reference value: 90.09%); format: functional; conditions: read-out: Activity
Hep 3B2 [8] = assay: Induction of apoptosis in human Hep3B cells assessed as late apoptotic cells at 2.5 uM measured after 48 hrs by Annexin V/FITC-PI staining based flow cytometry assay (reference value: 3.14%); format: functional
Hep 3B2 [9] = assay: Induction of apoptosis in human Hep3B cells assessed as necrotic cells at 2.5 uM measured after 48 hrs by Annexin V/FITC-PI staining based flow cytometry assay (reference value: 0.12%); format: functional
Hep 3B2 [10] = assay: Induction of apoptosis in human Hep3B cells assessed as early apoptotic cells at 5 uM measured after 48 hrs by Annexin V/FITC-PI staining based flow cytometry assay (reference value: 6.65%); format: functional
Hep 3B2 [11] = assay: Induction of apoptosis in human Hep3B cells assessed as necrotic cells at 5 uM measured after 48 hrs by Annexin V/FITC-PI staining based flow cytometry assay (reference value: 0.12%); format: functional
Hep 3B2 [12] = assay: Induction of apoptosis in human Hep3B cells assessed as late apoptotic cells at 10 uM measured after 48 hrs by Annexin V/FITC-PI staining based flow cytometry assay (reference value: 3.14%); format: functional
Hep 3B2 [13] = assay: Induction of apoptosis in human Hep3B cells assessed as necrotic cells at 10 uM measured after 48 hrs by Annexin V/FITC-PI staining based flow cytometry assay (reference value: 0.12%); format: functional
Hep 3B2 [14] = assay: Induction of apoptosis in human Hep3B cells assessed as upregulation of cleaved caspase-3 expression at 5 to 20 uM measured after 48 hrs by Western blot analysis; format: functional, cell-based; conditions: dose 5-20 µM
Hep 3B2 [15] = assay: Induction of apoptosis in human Hep3B cells assessed as upregulation of cleaved caspase-8 expression measured after 48 hrs by Western blot analysis; format: functional, cell-based; conditions: dose 5-20 µM, DDE = dose-dependent effect
Hep 3B2 [16] = assay: Induction of cell cycle arrest in human Hep3B cells assessed as accumulation at G0/G1 phase at 2.5 uM incubated for 48 hrs by flow cytometry analysis (reference value: 60.85 %); format: functional
Hep 3B2 [17] = assay: Induction of cell cycle arrest in human Hep3B cells assessed as accumulation at S phase at 2.5 uM incubated for 48 hrs by flow cytometry analysis (reference value: 30.56 %); format: functional
Hep 3B2 [18] = assay: Induction of cell cycle arrest in human Hep3B cells assessed as accumulation at G2/M phase at 2.5 uM incubated for 48 hrs by flow cytometry analysis (reference value: 8.59 %); format: functional
Hep 3B2 [19] = assay: Induction of cell cycle arrest in human Hep3B cells assessed as accumulation at G0/G1 phase at 5 uM incubated for 48 hrs by flow cytometry analysis (reference value: 60.85 %); format: functional
Hep 3B2 [20] = assay: Induction of cell cycle arrest in human Hep3B cells assessed as accumulation at S phase at 5 uM incubated for 48 hrs by flow cytometry analysis (reference value: 30.56 %); format: functional
Hep 3B2 [21] = assay: Induction of cell cycle arrest in human Hep3B cells assessed as accumulation at G2/M phase at 5 uM incubated for 48 hrs by flow cytometry analysis (reference value: 8.59 %); format: functional
Hep 3B2 [22] = assay: Induction of cell cycle arrest in human Hep3B cells assessed as accumulation at G0/G1 phase at 10 uM incubated for 48 hrs by flow cytometry analysis (reference value: 60.85 %); format: functional
Hep 3B2 [23] = assay: Induction of cell cycle arrest in human Hep3B cells assessed as accumulation at S phase at 10 uM incubated for 48 hrs by flow cytometry analysis (reference value: 30.56 %); format: functional
Hep 3B2 [24] = assay: Induction of cell cycle arrest in human Hep3B cells assessed as accumulation at G2/M phase at 10 uM incubated for 48 hrs by flow cytometry analysis (reference value: 8.59 %); format: functional
hERG [25] = assay: Selectivity ratio of IC50 for inhibition of hERG by automated patch clamp analysis to IC50 for antiproliferative activity against human BEL-7402/5-FU cells assessed as reduction in cell viability incubated for 72 hrs by MTT assay; format: toxicity, cell-based; conditions: read-out: Ratio IC50
hERG [26] = assay: Selectivity ratio of IC50 for inhibition of hERG by automated patch clamp analysis to IC50 for antiproliferative activity against human SMMC-7721 cells assessed as reduction in cell viability incubated for 72 hrs by MTT assay; format: toxicity, cell-based; conditions: read-out: Ratio IC50
[27] = Metabolic stability in human liver microsomes assessed as half life; format: ADME, Microsome

Structure (SMILES): COc1cccc(CNCc2c(C(=O)O)n(Cc3ccc(C)cc3)c3cc(C(C)C)ccc23)c1
- IC50 (SMMC-7721): 2.92 µM
- IC50 (SNU-387): 5.47 µM
- IC50 (Bel7402/5-FU): 4.55 µM
- Kd (14-3-3 protein eta): 35 µM
- inhibition [1]: Dde
- Activity (Hep 3B2 [2]): Dde
- inhibition (Hep 3B2 [3]): Dde
- viability at 1 µM (Hep 3B2 [4]): 88%
- Activity (Hep 3B2 [5]): 6.8%
- Activity (Hep 3B2 [6]): 4.86%
- viability at 2.5 µM (Hep 3B2 [7]): 86%
- Activity (Hep 3B2 [8]): 5.02%
- Activity (Hep 3B2 [9]): 0.27%
- Activity (Hep 3B2 [10]): 11.22%
- Activity (Hep 3B2 [11]): 1.07%
- Activity (Hep 3B2 [12]): 13.52%
- Activity (Hep 3B2 [13]): 2.82%
- Activity (Hep 3B2 [14]): Active
- Activity (Hep 3B2 [15]): Dde
- Activity (Hep 3B2 [16]): 59.12%
- Activity (Hep 3B2 [17]): 36.4%
- Activity (Hep 3B2 [18]): 4.47%
- Activity (Hep 3B2 [19]): 58.48%
- Activity (Hep 3B2 [20]): 37.73%
- Activity (Hep 3B2 [21]): 3.79%
- Activity (Hep 3B2 [22]): 67.7%
- Activity (Hep 3B2 [23]): 29.71%
- Activity (Hep 3B2 [24]): 2.59%
- selectivity ratio at 72 h (hERG [25]): 5.84
- selectivity ratio at 72 h (hERG [26]): 11.8
- half-life [27]: 7.31 min
